Results as given in US20210403435A1, “HERBICIDAL COMPOUNDS” (SYNGENTA CROP PROTECTION AG, priority 2018, published 2021).

Key:
Assay in all cases: Post-emergence efficacy, glasshouse, evaluated after 13 days
Assay type in all cases: in vivo
[1] = system: Amaranthus palmeri (AMAPA); conditions: Amaranthus palmeri, 312 h; post-emergence application, 500 g/Ha, evaluated after 13 days; read-out: Control of weed species AMAPA (100=total damage to plant; 0=no damage to plant)
Summary of the method: (§1)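 Injury assessed 13 days after a post-emergence spray, 0 = no damage and 100 = total damage. Spray liquid: compound in acetone/IF50 (Emulsogen EL360, N-methylpyrrolidone, Dowanol DPM), diluted with 0.25% or 1% sodium lauryl ether sulphate plus 1% ammonium sulphate.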

[2] = system: Chenopodium album (CHEAL); conditions: Chenopodium album, 312 h; post-emergence application, 500 g/Ha, evaluated after 13 days; read-out: Control of weed species CHEAL (100=total damage to plant; 0=no damage to plant)
Summary of the method: as §1

[3] = system: Digitaria sanguinalis (DIGSA); conditions: Digitaria sanguinalis, 312 h; post-emergence application, 500 g/Ha, evaluated after 13 days; read-out: Control of weed species DIGSA (100=total damage to plant; 0=no damage to plant)
Summary of the method: as §1

[4] = system: Echinochloa crus-galli (ECHCG); conditions: Echinochloa crus-galli, 312 h; post-emergence application, 500 g/Ha, evaluated after 13 days; read-out: Control of weed species ECHCG (100=total damage to plant; 0=no damage to plant)
Summary of the method: as §1

Eleusine indica (ELEIN) = conditions: Eleusine indica, 312 h; post-emergence application, 500 g/Ha, evaluated after 13 days; read-out: Control of weed species ELEIN (100=total damage to plant; 0=no damage to plant)
Summary of the method: as §1

[5] = system: Euphorbia heterophylla (EPHHL); conditions: Euphorbia heterophylla, 312 h; post-emergence application, 500 g/Ha, evaluated after 13 days; read-out: Control of weed species EPHHL (100=total damage to plant; 0=no damage to plant)
Summary of the method: as §1

[6] = system: Ipomoea hederacea (IPOHE); conditions: Ipomoea hederacea, 312 h; post-emergence application, 500 g/Ha, evaluated after 13 days; read-out: Control of weed species IPOHE (100=total damage to plant; 0=no damage to plant)
Summary of the method: as §1

Lolium perenne (LOLPE) = conditions: Lolium perenne, 312 h; post-emergence application, 500 g/Ha, evaluated after 13 days; read-out: Control of weed species LOLPE (100=total damage to plant; 0=no damage to plant)
Summary of the method: as §1

Setaria faberi (SETFA) = conditions: Setaria faberi, 312 h; post-emergence application, 500 g/Ha, evaluated after 13 days; read-out: Control of weed species SETFA (100=total damage to plant; 0=no damage to plant)
Summary of the method: as §1

Structure (SMILES): CC(O)CNC(=O)c1cc[n+](CCC(=O)O)nc1 (stereo not drawn) [Compound A128]
- pest or weed control at 500 g/ha [1]: 100%
- pest or weed control at 500 g/ha [2]: 90%
- pest or weed control at 500 g/ha [3]: 100%
- pest or weed control at 500 g/ha [4]: 40%
- pest or weed control at 500 g/ha (Eleusine indica (ELEIN)): 90%
- pest or weed control at 500 g/ha [5]: 100%
- pest or weed control at 500 g/ha [6]: 30%
- pest or weed control at 500 g/ha (Lolium perenne (LOLPE)): 80%
- pest or weed control at 500 g/ha (Setaria faberi (SETFA)): 90%

Structure (SMILES): O=C(NC1CC1)c1cc[n+](CCS(=O)(=O)[O-])nc1 [Compound A30]
- pest or weed control at 500 g/ha [1]: 100%
- pest or weed control at 500 g/ha [2]: 100%
- pest or weed control at 500 g/ha [3]: 70%
- pest or weed control at 500 g/ha [4]: 40%
- pest or weed control at 500 g/ha (Eleusine indica (ELEIN)): 80%
- pest or weed control at 500 g/ha [5]: 70%
- pest or weed control at 500 g/ha [6]: 70%
- pest or weed control at 500 g/ha (Lolium perenne (LOLPE)): 70%
- pest or weed control at 500 g/ha (Setaria faberi (SETFA)): 70%

Structure (SMILES): CC1(C)CC1NC(=O)c1cc[n+](CCC(=O)O)nc1 (stereo not drawn) [Compound A137]
- pest or weed control at 500 g/ha [1]: 100%
- pest or weed control at 500 g/ha [2]: 90%
- pest or weed control at 500 g/ha [3]: 100%
- pest or weed control at 500 g/ha [4]: 100%
- pest or weed control at 500 g/ha (Eleusine indica (ELEIN)): 100%
- pest or weed control at 500 g/ha [5]: 10%
- pest or weed control at 500 g/ha [6]: 0%
- pest or weed control at 500 g/ha (Lolium perenne (LOLPE)): 100%
- pest or weed control at 500 g/ha (Setaria faberi (SETFA)): 70%

Structure (SMILES): CCNC(=O)c1cc[n+](CC(=O)OC)nc1 [Compound A89]
- pest or weed control at 500 g/ha [1]: 0%
- pest or weed control at 500 g/ha [2]: 0%
- pest or weed control at 500 g/ha [3]: 0%
- pest or weed control at 500 g/ha [4]: 0%
- pest or weed control at 500 g/ha (Eleusine indica (ELEIN)): 0%
- pest or weed control at 500 g/ha [5]: 20%
- pest or weed control at 500 g/ha [6]: 20%
- pest or weed control at 500 g/ha (Lolium perenne (LOLPE)): 0%
- pest or weed control at 500 g/ha (Setaria faberi (SETFA)): 0%
